For data set [1], the system named is MDA-MB-468 human breast adenocarcinoma cells. The data set is described as follows: Colorimetric cytotoxicity (MTS) assay, minicell-mediated drug delivery. The data set is classed as cell-based. The settings on record: MDA-MB-468 cells, within 6 days after treatment. How it is done: A colorimetric cytotoxicity assay (Promega; CellTiter 96 Aqueous One™) was used. […] MDA-MB 468 cells were seeded at 5×10^6 cells in T75 flasks and incubated for 48 hrs to obtain ˜1×10^7 cells/flask. The media was changed and cells were treated with 10^9 non-targetedminicellsDOX or ^EGFRMinicellsDOX. Free Doxorubicin (50 ng/ml) was also included as a positive control. The cells were incubated for 24 hrs, washed thoroughly with 3 changes of PBS and trypsinized. Viable cells were counted in a haemocytometer using the trypan blue exclusion method. 1×10^4 cells/ml per well were aliqouted into 24-well plates (6 wells per treatment) and incubated for 3, 4, 5, and 6 days with media changes everyday. MTS assay was performed at each time point according to the manufacturers instructions. Briefly, 100 μL of MTS reagent was added to each well and color development was monitored over 2.5 hrs to 4 hrs. 100 μL from each well was transferred to a 96-well plate and the absorbance was read at 490 nm.

A short description of data set [2]: Reaction at the tail vein injection site in xenograft mice (Example 7). Format: in vivo, athymic nude mice. The procedure:
The experiment was designed as follows. Group 1 (control) received no treatment. Group 2 (control) received free Doxorubicin (5 μg/gm of mouse body weight) intratumorally. This control was included to determine the effect of free Doxorubicin on tumor cells and to assess toxic side-effects. Group 3 (control) was the same as group 2, except that the Doxorubicin was administered intravenously. Group 4 (control) received the anti-O antigen/anti-EGFR BsAb and free Doxorubicin intravenously to show the effect of BsAb in the absence of minicells. […] Groups 7 and 8 received EGFR-targeted ^EGFRMinicellsDOX intravenously and intratumorally, respectively, to determine if receptor-targeted, drug-packaged minicells could effect tumor stabilization. […] Minicells were administered at a dose of 10^8 and all treatments were given on days 17, 24, 27 and 56 post-xenograft establishment. All measurements were performed by an investigator who was blinded to the treatments administered. Statistical analysis was performed by analysis of variance (ANOVA) and P<0.05 was considered to be statistically significant.

For data set [3] the following is noted: cited from earlier work.
Data set [4] deals with human breast cancer xenografts. The data set is described as follows: Human breast cancer xenograft in nude mice, Paclitaxel minicells (Example 8). As to conditions: 1×10^8 minicells or 400 μg free Paclitaxel, intravenously or intratumorally, days 15, 21, 26, 29 and 33. Format: in vivo. (A xenograft is tissue or cells of one species grown in another, often human tumour cells in immunodeficient mice.)
Protocol: Human breast adenocarcinoma cells (MDA-MB-468, ATCC; human mammary epithelial cells; non-phagocytic) were grown in tissue culture to full confluency in T-75 flasks in RPMI 1640 medium supplemented with 5% Bovine Calf Serum (GIBCO-BRL Life Technologies, Invitrogen Corporation, Carlsbad, Calif., USA) and glutamine (Invitrogen) in a humidified atmosphere of 95% air and 5% CO2 at 37° C. 1×10^6 cells in 50 uL serum-free media together with 50 uL growth factor reduced matrigel (BD Biosciences, Franklin Lakes, N.J., USA) were injected subcutaneously between the shoulder blades of each mouse using a 23-gauge needle. The tumors were measured twice a week using an electronic digital caliper (Mitutoyo, Japan, precision to 0.001) and mean tumor volume was calculated using the formula, length (mm)×width^2 (mm)×0.5=volume (mm^3). 16 days post-implantation, the tumors reached volumes between 50 mm^3 and 80 mm^3, and mice were randomized to seven different groups of 11 per group.
The experiment shown in example 7 was repeated using ^EGFRminicellsPaclitaxel as the experimental treatment. […]

On to `COc1cccc2c1C(=O)c1c(O)c3c(c(O)c1C2=O)C[C@@](O)(C(=O)CO)C[C@@H]3O[C@H]1C[C@H](N)[C@H](O)[C@H](C)O1` [free Doxorubicin, Doxorubicin], for which the cell viability entry in data set [1] was “about 30%”. Besides, the “reaction at the site of injection” value in data set [2] is “severe reaction at the site of the injection”.

On to `CC[C@]1(O)C[C@@H]2CN(CCc3c([nH]c4ccccc34)[C@@](C(=O)OC)(c3cc4c(cc3OC)N(C)[C@H]3[C@@](O)(C(=O)OC)[C@H](OC(C)=O)[C@]5(CC)C=CCN6CC[C@]43[C@@H]65)C2)C1` [Vinblastine], for which the solubility in water entry in data set [3] is on record as “low solubility in water”.

In the case of `CC(=O)O[C@H]1C(=O)[C@@]2(C)[C@H]([C@H](OC(=O)c3ccccc3)[C@]3(O)C[C@H](OC(=O)[C@H](O)[C@@H](NC(=O)c4ccccc4)c4ccccc4)C(C)=C1C3(C)C)[C@]1(OC(C)=O)CO[C@@H]1C[C@@H]2O` [free paclitaxel, Paclitaxel], in data set [4], the tumor stabilization/regression result is given as “negligible effect on tumor growth”.

(Values after patent US10799461B2 (priority 2004, dated 2020).)
